Tests used:
[1] = test system: murine mixed primary glia; experiment: basal apoE production from murine mixed primary glia cultures; assay type: cell-based; details: no β-amyloid treatment, FIG. 5
From the text: Primary mixed glial cultures, purified primary astrocyte, and purified primary microglial cultures prepared from rodent or human brain tissue (generally fetal) were used in the test assay. A variety of preparation methods can be used to isolate primary glial cultures, both mixed and purified for astroglial or microglial cell types. See e.g. McCarthy and de Vellis, J. Cell Biol. 85:890-902 (1980); Levinson & McCarthy in Culturing Nerve Cells, MIT Press, Cambridge, Mass. at 309-336 (1991); Hu et al. J. Biol. Chem. 271:2543-2547 (1996); Stone et al. Exptl. Neurol. 143:313-318 (1997); Barger et al. Mol. Brain Res. 40:116-126 (1996); and Manthorpe et al. J. Neurocytol. 8:605-621 (1979). Also, primary glial cultures can be prepared which include neurons, such as in the procedure described by Messmer-Joudrier et al. Eur. J. Neurosci. 8: 2652-2661 (1996). For primary cell cultures, different brain regions were used to isolate the cells. Hippocampal, cortical, cerebellar or brain stem cultures were prepared. Primary and continuous cell lines were plated into wells of a multi-well plate at a subconfluent density for the assay. Typically, the cultures were used within 1-2 days of initial plating. […]

BV-2 microglial cells = experiment: basal apoE production from BV-2 microglial cell cultures; assay type: cell-based, murine; details: no β-amyloid treatment, FIG. 5
From the text: Microglial cell lines were used to evaluate changes in apoE expression. Microglial cell lines for use in the method of the invention include murine lines, e.g. BV-2 cell line (Blasi et al. J. Neuroimmunol. 27:229-237 (1990) and the N9 cell line (Corradin et al. Glia 7:255-262 (1993) or human lines such as those described in Janabi et al. Neurosci. Lett. 195:105-108 (1995). The microglial cell lines used were obtained from the investigators who isolated the lines. Astroglial continuous cell lines were also utilized in the assay, e.g. the human U373-MG line or the rodent lines C6 and DI TNC1. All of these astrocytic lines were obtained, from the American Tissue Culture Collection cell repository (Rockville, Md.).
To screen for inhibitors of apoE secretion or production using cultured brain cells, wells containing cultures were incubated in serum-free medium or medium containing reduced serum concentrations (1 to 0.1%) for various periods of time anywhere from 1-72 hours in the presence of the test compound. For some inhibitors, such as HMG CoA reductase and farnesylation inhibitors, pre-treatment of the cultures with the compound for 4-16 hours in serum-containing growth medium was used to maximize the effectiveness of the assay. Cultures were treated with β-amyloid to stimulate apoE levels in the test paradigm. […]

[2] = test system: organotypic hippocampal cultures; experiment: apoE release from organotypic hippocampal brain slice cultures; assay type: cell-based, rat; details: for inhibition of apoE: organotypic hippocampal brain slice cultures, FIG. 7
Procedure: Eight day old neonatal rat or mouse pups were quickly decapitated with scissors, serrated on one edge, in an aseptic fume hood. The brain was rapidly removed to buffered dissection media containing 100 ml MEM, 1 ml penicillin/streptomycin, 1 ml Tris 100×stock (10 mm final, pH 7.2), sterile filtered and chilled. The hippocampi and cortices were isolated under a dissecting microscope and transported in dissection media to a sterile fume hood. Tissue was positioned on the stage of a MacIllwain tissue chopper with a sterile paint brush, and 400 μm sections were made. Approximately 30 sections per animal were be obtained. Sections were separated by vigorously swirling the petri dish containing the sections in culture media, containing 25% horse serum, 25% Hank's media, 50% minimal essential media, 1 ml penicillin/streptomycin, 0.5 ml L-glutamine. Sections were inspected with a dissecting microscope and damaged tissue removed. The selected sections were manipulated in drops of dissecting media with Pasteur pipettes which had been scored and broken, then fire polished, to produce appropriate diameter bores, and placed on Millipore culture plate inserts set into 35 mm plate containing 1 ml culture media or 6 well plates containing 1.2 ml culture media. Plates containing inserts and media had been pre-equilibrated to 37° C. and 5% CO2. Three to six slices were positioned on each insert. Excess media was drawn off the slice, and the culture placed in a 37° C., 5% CO2 incubator. Cultures were maintained for up to 3 months. Media was changed at 24 hours, and at 3-4 day intervals.
Media was pre-equilibrated in plates at 37° C., 5% CO2. Culture inserts holding 3 rat organotypic brain slices obtained from 8 day old animals and maintained in culture for 2 weeks were transferred to the media containing test solution. […]
After treatment, medium is harvested and assayed for apoE levels using immunoassays such as ELISA or Western blot. Cell lysates prepared from the treated brain slices and analyzed for cell-associated apoE using the same assays.

Row | SMILES | basal apoE levels [1] | basal apoE levels (BV-2 microglial cells) | apoE release ([2]; organotypic hippocampal cultures, 24, 48, 72 hours after treatment, FIG. 6) | inhibition of apoE [2] | inhibition of apoE ([2]; listed as NaSalicylate)
1 | COC(=O)[C@H](CC(C)C)NC(=O)c1ccc(NC[C@@H](N)CS)cc1-c1ccccc1 [GGTI-286] | reduced basal apoE levels | reduced basal apoE levels | inhibitory effect on apoE release |  | 
2 | O=C([O-])c1ccccc1O.[Na+] [sodium salicylate] |  |  |  | time- and dose-dependent inhibition of apoE | dose dependent inhibition of apoE

Reference: patent publication US6428950B1, “Assay to identify compounds that alter apolipoprotein E expression” (Scios Inc., priority 1998, dated 2002)
